Here are results for twelve compounds from patent US9328138B2 (priority 2011, dated 2016).

Where “and” joins values, the source holds several entries; their conditions need not be identical. Equal values may be shown once. Where a name gives a salt, the structure may show the parent alone.

For assay [1], the target named is T1, HCV genotype 1b (BK) NS3 modified enzyme with a R155K mutation (Hepatitis C virus genotype 1b, UniProt P26663, R1181K).
T1 construct: HCV genotype 1b (BK) NS3 modified enzyme
As to the kind of experiment: HCV NS3 protease time-resolved fluorescence (TRF) assay, genotype 1b R155K. Type of assay: biochemical. To be noted: Ki 1b R155K. The method, boiled down:
(§1)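 Steps: compound plus NS3/NS4A enzyme for 10 minutes; add peptide substrate to 25 nM; let cleavage proceed 6 hours at room temperature; read product fluorescence (340 nm excitation, 615 nm emission, delayed 400 μs). Enzyme levels gave signal/background 5-20.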

For assay [2], the target named is HCV NS3 protease genotype 3a (3A-1) (Hepatitis C virus genotype 3a, UniProt Q81258). Description: HCV NS3 protease time-resolved fluorescence (TRF) assay, genotype 3a. Type of assay: biochemical. To be noted: Ki 3a. The method in brief:
as §1

[3] abbreviates: genotype 1b (BK) NS3 R155K, single value.
[4] abbreviates: first of two values printed in the cell (not explained).
The mark [5] stands for this setting: second of two values printed in the cell (not explained).

For orientation: Ki means the dissociation constant of the complex between target and ligand, obtained from inhibition or displacement. A high value points to a looser hold on the target. As to `C=C[C@@H]1C[C@]1(NC(=O)[C@@H]1C[C@@H]2CN1C(=O)[C@H](C1CCCC1)NC(=O)O[C@@H]1CCC[C@H]1CC/C=C/Cc1c(nc3ccccc3c1OCCn1cccn1)O2)C(=O)NS(=O)(=O)C1CC1` [Example 44, (3aR,7S,10S,12R,21E,24aS)-7-cyclopentyl-N-{(1R,2S)-1-[(cyclopropylsulfonyl)carbamoyl]-2-ethenylcyclopropyl}-5,8-dioxo-19-[2-(1H-pyrazol-1-yl)ethoxy]-1,2,3,3a,5,6,7,8,11,12,20,23,24,24a-tetra decahydro-10H-9,12-methanocyclopenta[18,19][1,10,3,6]dioxadiazacyclonona decino[11,12-b] quinoline-10-carboxamide], the Ki in assay [1] (setting [3]) came out at 0.25 nM; in assay [2] it was 7.9 nM.

For the compound `C=C[C@@H]1C[C@]1(NC(=O)[C@@H]1C[C@@H]2CN1C(=O)[C@H](C(C)(C)C)NC(=O)O[C@@H]1CCC[C@H]1CCCCCc1c(nc3ccccc3c1OCCN(C)C)O2)C(=O)NS(=O)(=O)C1(CCN2CCOCC2)CC1` [Example 103, (3aR,7S,10S,12R,24aR)-7-tert-butyl-19-[2-(dimethylamino)ethoxy]-N-{(1R,2S)-2-ethenyl-1-[({1-[2-(morpholin-4-yl)ethyl]cyclopropyl}sulfonyl)carbamoyl]cyclopropyl}-5,8-dioxo-1,2,3,3a,5,6,7,8,11,12,20,21, 22,23,24,24a-hexadeca hydro-10H-9,12-methanocyclo-penta[18,19][1,10,3,6] dioxadiazacyclononadecino [11,12-b]quinoline-10-carboxamide], the Ki was 0.77 nM and 0.13 nM in assay [1] (setting [3]); 8.5 nM and 1.1 nM in assay [2].

For `C=C[C@@H]1C[C@]1(NC(=O)[C@@H]1C[C@@H]2CN1C(=O)[C@H](C(C)(C)C)NC(=O)O[C@@H]1CCC[C@H]1CCCCCc1c(nc3ccccc3c1OCCN1CCOCC1)O2)C(=O)NS(=O)(=O)N1CCOCC1` [Example 112, (3aR,7S,10S,12R,24aR)-7-tert-butyl-N-{(1R,2S)-2-ethenyl-1-[(morpholin-4-ylsulfonyl)carbamoyl]cylcopropyl}-19-[2-(morpholin-4-yl)ethoxy]-5,8-dioxo-1,2,3,3a,5,6,7,8,11,12,20,21,22,23,24,24a-hexadecahydro-10H-9,12-methanocyclopenta[18,19] [1,10,3,6] dioxadiazacyclononadecino [11,12-b]quinoline-10-carboxamide], the Ki in assay [1] (setting [3]) is 24 nM; in assay [2], 620 nM.

Regarding `C=C[C@@H]1C[C@]1(NC(=O)[C@@H]1C[C@@H]2CN1C(=O)[C@H](C1CCCC1)NC(=O)O[C@@H]1CCC[C@H]1CC/C=C/Cc1c(nc3ccccc3c1OCCCN1CCCC(F)(F)C1)O2)C(=O)NS(=O)(=O)C1(C)CC1` [Example 83, (3aR,7S,10S,12R,21E,24aS)-7-cyclo pentyl-19-[3-(3,3-difluoropiperidin-1-yl)propoxy]-N-[(1R,s)-2-ethenyl-1-{[(1-methylcyclopropyl)sulfonyl]carbamoyl}cyclopropyl]-5,8-dioxo-1,2,3,3a,5,6,7,8,11,12,20,23,24,24a-tetradecahydro-10H-9,12-methanocyclopenta[18,19] [1,10,3,6]dioxadiazacyclononadecino [11,12-b]quinoline-10-carboxamide], the values for the inhibition constant (Ki) in assay [1] (setting [3]) and in assay [2] were 1.1 nM and 23 nM, respectively.

For the compound `C=C[C@@H]1C[C@]1(NC(=O)[C@@H]1C[C@@H]2CN1C(=O)[C@H](C1CCCCC1)NC(=O)O[C@@H]1C[C@H]1CCCCCc1c(nc3ccccc3c1OC1CCN(CC3CC3)CC1)O2)C(=O)NS(=O)(=O)C1(C)CC1` [Example 238, 4-{[(1aR,5S,8S,10R,22aR)-5-cyclohexyl-8-{[(1R,2S)-2-ethenyl-1-{[(1-methylcyclopropyl)sulfonyl]carbamoyl}cyclopropyl]carbamoyl}-3,6-dioxo-1,1a,3,4,5,6,9,10,18,19,20,21,22,22a-tetradecahydro-8H-7,10-methanocyclopropa[18,19][1,10,3,6]dioxadiazacyclononadecino[11,12-b]quinolin-17-yl]oxy}-1-(cyclopropylmethyl)piperidinium formate], the Ki in assay [1] (setting [4]) is 0.031 nM; in assay [1] (setting [5]), 0.047 nM; in assay [2] it was 0.9 nM.

For `C=C[C@@H]1C[C@]1(NC(=O)[C@@H]1C[C@@H]2CN1C(=O)[C@H](C1CCCCC1)NC(=O)O[C@@H]1C[C@H]1CCCCCc1c(nc3c(OC)cccc3c1OCCN1CCOCC1)O2)C(=O)NS(=O)(=O)C1(C)CC1` [Example 128, (1aR,5S,8S,10R,22aR)-5-cyclohexyl-N-[(1R,2S)-2-ethenyl-1-{[(1-methylcyclopropyl)sulfonyl]carbamoyl}cyclopropyl]-13-methoxy-17-[2-(morpholin-4-yl)ethoxy]-3,6-dioxo-1,1a,3,4,5,6,9, 10,18,19,20,21,22,22a-tetradecahydro-8H-7,10-methanocyclopropa [18,19][1,10,3,6]dioxadiaza cyclononadecino[11,12-b]quinoline-8-carboxamide], the results for the Ki in assay [1] (setting [3]) and in assay [2] were 0.41 nM and 13 nM, respectively.

In the case of `CCOc1c2c(nc3ccccc13)O[C@@H]1C[C@@H](C(=O)N[C@]3(C(=O)NS(=O)(=O)C4CC4)C[C@H]3CC)N(C1)C(=O)[C@H](C1CCCC1)NC(=O)O[C@@H]1CCC[C@H]1CCCCC2` [Example 25, (3aR,7S,10S,12R,24aR)-7-cyclo pentyl-N-{(1R,2R)-1-[(cyclopropylsulfonyl)carbamoyl]-2-ethylcyclopropyl}-19-ethoxy-5,8-dioxo-1,2,3,3a,5,6,7,8,11,12,20,21,22,23,24,24a-hexadecahydro-10H-9,12-methanocyclopenta[18,19][1,10,3,6]dioxa diazacyclononadecino[11,12-b]quinoline-10-carboxamide], the values for the Ki in assay [1] (setting [3]) and in assay [2] were 5.2 nM and 88 nM, respectively.

As to `C=C[C@@H]1C[C@]1(NC(=O)[C@@H]1C[C@@H]2CN1C(=O)[C@H](C1CCCCC1)NC(=O)O[C@@H]1C[C@H]1CCCCCc1c(nc3ccccc3c1OC1CCOCC1)O2)C(=O)NS(=O)(=O)C1(C)CC1` [Example 253, (1aR,5S,8S,10R,22aR)-5-cyclohexyl-N-[(1R,2S)-2-ethenyl-1-{[(1-methylcyclopropyl)sulfonyl]carbamoyl}cyclopropyl]-3,6-dioxo-17-(tetrahydro-2H-pyran-4-yloxy)-1,1a,3,4,5,6,9,10,18,19,20,21,22,22a-tetradecahydro-8H-7,10-methanocyclopropa[18,19][1,10,3,6]dioxadiazacyclononadecino[11,12-b]quinoline-8-carboxamide], the Ki in assay [1] (setting [4]) was found to be 0.026 nM; in assay [1] (setting [5]), 0.265 nM; in assay [2], 11 nM.

For `C=C[C@@H]1C[C@]1(NC(=O)[C@@H]1C[C@@H]2CN1C(=O)[C@H](C(C)(C)C)NC(=O)O[C@@H]1C[C@H]1CCCCCc1c(nc3c(F)cccc3c1OCCn1ccnc1)O2)C(=O)NS(=O)(=O)C1(C)CC1` [Example 214, (1aR,5S,8S,10R,22aR)-5-tert-butyl-N-[(1R,2S)-2-ethenyl-1-{[(1-methylcyclopropyl)sulfonyl]carbamoyl}cyclopropyl]-13-fluoro-17-[2-(1H-imidazol-1-yl)ethoxy]-3,6-dioxo-1,1a,3,4,5,6,9,10,18,19,20,21,22,22a-tetradecahydro-8H-7,10-methanocyclopropa[18,19][1,10,3,6] dioxadiazacyclononadecino[11,12-b]quinoline-8-carboxamide], the Ki in assay [1] (setting [3]) was 0.021 nM; in assay [2], 1.2 nM.

Turning to `CC1(S(=O)(=O)NC(=O)[C@@]23C[C@H]2/C=C\CCCCC[C@@H]2NC(=O)O[C@@H]4C[C@H]4CCC/C=C/c4c(nc5ccccc5c4OCCCN4CCCCC4)O[C@@H]4C[C@@H](C(=O)N3)N(C4)C2=O)CC1` [Example 302, (1aR,5S,11Z,12aS,13aR,16S,19R,27E,31aR)—N-[(1-methylcyclopropyl)sulfonyl]-3,15,33-trioxo-26-[3-(piperidin-1-yl)propoxy]-1,1a,3,4,5,6,7,8,9,10,12a,13,15,16,18,19,29,30,31,31a-icosahydro-5,17:16,19-dimethanodicyclopropa[12,13:28,29][1,20,3,14,17]dioxatriazacyclononacosino[21,22-b]quinoline-13a(14H)-carboxamide], the Ki turned out to be 0.16 nM in assay [1] (setting [3]) and 2 nM in assay [2].

For the compound `C=C[C@@H]1C[C@]1(NC(=O)[C@@H]1C[C@@H]2CN1C(=O)[C@H](C1CCCCC1)NC(=O)O[C@@H]1C[C@H]1CCCCCc1c(nc3ccccc3c1OC1CCN(CC)CC1)O2)C(=O)NS(=O)(=O)C1(C)CC1` [Example 239, 4-{[(1aR,5S,8S,10R,22aR)-5-cyclohexyl-8-{[(1R,2S)-2-ethenyl-1-{[(1-methylcyclopropyl)sulfonyl]carbamoyl}cyclopropyl]carbamoyl}-3,6-dioxo-1,1a,3,4,5,6,9,10,18,19,20,21,22,22a-tetradecahydro-8H-7,10-methanocyclopropa[18,19][1,10,3,6]dioxadiazacyclononadecino[11,12-b]quinolin-17-yl]oxy}-1-ethylpiperidinium formate], the values for the Ki in assay [1] (setting [4]), in assay [1] (setting [5]) and in assay [2] were 0.016 nM, 0.064 nM and 0.278 nM, respectively.

`C=C[C@@H]1C[C@]1(NC(=O)[C@@H]1C[C@@H]2CN1C(=O)[C@H](C(C)(C)C)NC(=O)O[C@@H]1CCC[C@H]1CCCCCc1c(nc3ccccc3c1OCCN1CCOCC1)O2)C(=O)NS(=O)(=O)N(C)C` [Example 106, (3aR,7S,10S,12R,24aR)-7-tert-butyl-N-{(1R,2S)-1-[(dimethylsulfamoyl)carbamoyl]-2-ethenylcyclopropyl}-19-[2-(morpholin-4-yl)ethoxy]-5,8-dioxo-1,2,3,3a,5,6,7,8,11,12,20,21,22,23,24,24a-hexadecahydro-10H-9,12-methanocyclopenta[18,19][1,10,3,6]dioxadiazacyclononadecino[11,12-b]quinoline-10-carboxamide]: the Ki in assay [1] (setting [3]) is 0.78 nM; in assay [2], 17 nM.
